From patent US20130158070A1, “CONJUGATES OF POLYUNSATURATED FATTY ACIDS AND AMINE-CONTAINING COMPOUNDS AND USES THEREOF” (priority 2010, published 2013)

Assays:
DNBS-induced colitis = assay: DNBS-induced experimental colitis in mice, oral administration; format: in vivo; settings: day four after DNBS, MWL001 50 mg/kg oral daily
Method: In this study, the effect of MWL001 on pro-inflammatory mediators in DNBS-induced experimental colitis in mice was evaluated. In particular it was observed that there was no expression of TNF-α, CD4, TGF-13, CD25 in the colon tissue from sham-treated mice. MWL001 and DEX were administered orally and daily starting at six hours after the DNBS challenge.
Colitis was induced with a very low dose of 2,4-dinitrobenzene sulfonic acid (DNBS) (4 mg per mouse) by using a modification of the method first described in mice. […] Mice were anesthetized by Enflurane. DNBS (4 mg in 100 μl of 50% ethanol) was injected into the rectum through a catheter inserted 4.5 cm proximally to the anus. The carrier alone (100 μl of 50% ethanol) was administered in control experiments. Thereafter, the animals were kept for 15 minutes in a Trendelenburg position to avoid reflux. […] On Day four, the animals were weighed and anaesthetized with chloral hydrate, and their abdomen was opened by a midline incision. The colon was removed, freed from surrounding tissues, opened along the antimesenteric border and processed for histology.
TNF-α and IL-6 levels were evaluated and colon tissues collected at four days after DNBS administration. Briefly, portions of terminal colon were homogenized as previously described in phosphate-buffered saline (PBS, ICN Biomedicals, Milan, Italy) containing two mmol/L of phenyl-methyl sulfonyl fluoride (PMSF, Sigma Chemical Co.). The assay was carried out using a colorimetric, commercial kit (R&D system Milan, Italy) according to the manufacturer instructions. All cytokines determinations were performed in duplicate serial dilutions.
At four days after DNBS administration, colon tissues were fixed in 10% (w/v) PBS-buffered formaldehyde and 7 μm sections were prepared from paraffin embedded tissues. After deparaffinization, endogenous peroxidase was quenched with 0.3% (v/v) hydrogen peroxide in 60% (v/v) methanol for 30 min. The sections were permeabilized with 0.1% (w/v) Triton X-100 in PBS for 20 min. Non-specific adsorption was minimized by incubating the section in 2% (v/v) normal goat serum in PBS for 20 min. Endogenous biotin or avidin binding sites were blocked by sequential incubation for 15 min with biotin and avidin (Vector Laboratories, Burlingame, Calif.), respectively. Sections were incubated overnight with: 1) purified polyclonal antibody directed towards CD4 (Santa Cruz Biotechnology, 1:500 in PBS, v/v) or 2) with purified anti-CD25 (Santa Cruz Biotecnology 1:500 in PBS, w/v) or 3) with anti- TNF-α polyclonal antibody (Santa Cruz Biotechnology, N-19:sc-1350, 1:500 in PBS, v/v) or 4) with anti-TGF-β polyclonal antibody (Santa Cruz, 1:500 in PBS, v/v).
Sections were washed with PBS, and incubated with a secondary antibody. Specific labelling was detected with a biotin-conjugated goat anti-rabbit IgG and avidin-biotin peroxidase complex (Vector Laboratories, Burlingame, Calif.).

[1] = Pharmacokinetic profile after oral administration in rats; format: in vivo, Sprague-Dawley male rats
Method: Evaluation of the pharmacokinetic profile of MWL001 after oral administration in rats was performed.
Sprague-Dawley male rats weighing 300-325 g were used to evaluate the oral absorption of MWL001 and its blood levels. They were deprived of food overnight and given free access to water. A dose of 10 mg/kg MWL-001 (3.3 mg/rat) was dispersed in 2.5 mL DDW and delivered to the rats by oral gavage. Blood samples (300 μl) from the rats' tails were collected in heparin containing tubes at 0, 0.5, 1, 1.5, 2, 3, 4, 6, 8, 12 and 24 h. The samples were immediately centrifuged at 10,000 rpm for 5 min, after which 150 μl of plasma samples were transferred to new tubes and stored at −80° C. until analyzed by LCMS/MS.
The assay was based on protein precipitation of MWL001 and DHA (as an MWL001 metabolite) using methanol (100 μL plasma sample mixed with […] of methanol. The separation was carried out under reverse-phase conditions employing a Phenomenex Synergi, column (MAX-RP, 50×2 mm, 2.5 μm, 100A (in gradient mode. The mobile phase A was methanol/water/formic acid 20/80/0.2 and the mobile phase B was methanol/water/formic acid 80/20/0.2. The flow rate was maintained at 0.3 mL/min, and the column was maintained at 40° C. HPLC-MS/MS analysis was performed with a Shimadzu LC-20 HPLC system coupled with a Sciex Qtrap 3200 Turbo Ion Spray detector in positive ionization mode. The tested samples were quantified against a calibration curve in the range of 5-50 ng/mL.

[2] = tested on: carrageenan-induced edema; assay: Carrageenan-induced paw edema in rats; format: in vivo, Sprague dawley rats; settings: carrageenan 1 mg/paw, versus Ibuprofen, FIG. 4
Method: Exemplary conjugates were subjected to in vivo study of paw edema measurements in rats. Sprague dawley rats (150-200 grams) were used. Edema was induced by a single sub-plantar injection of carrageenan (1 mg/paw) into the left hind paw of the rat under light ether anesthesia. The total volume injected was 0.1 ml. The paw volume was measured immediately before the injection and at hourly intervals thereafter using a hydroplethysmometer (model 7150, Ugo Basile, Italy). The results were expressed either as the increase in paw volume (ml) calculated by subtracting the basal volume or by calculating the area under the time-course curve (AUC; ml h) for each group.
The anti-inflammatory activity of the conjugates was tested versus Ibuprofen, as a reference, on carrageenan-induced edema at different time intervals.

[3] = male, Sprague-Dawley, rat, 10 mg/kg oral gavage, plasma

Question: For `CCC=CCC=CCC=CCC=CCC=CCC=CCCC(=O)N1CC(O)CC1C(=O)O` (stereo not drawn) [MWL001], which IL-6 colon levels (DNBS-induced colitis; colorimetric kit) is on record?
Answer: significant reduction

Question: What about the TNF-α colon levels (DNBS-induced colitis; colorimetric kit) of the same molecule?
Answer: significant reduction

Question: And the “expression of CD4 in colon tissue” value (DNBS-induced colitis; immunostaining)?
Answer: significantly reduced

Question: And the “expression of CD25 in colon tissue” value (DNBS-induced colitis; immunostaining)?
Answer: significantly reduced

Question: And the “expression of TGF-β in colon tissue” value (DNBS-induced colitis; immunostaining)?
Answer: significantly reduced

Question: What about the “expression of TNF-α in colon tissue” value (DNBS-induced colitis; immunostaining) of the same molecule?
Answer: significantly reduced

Question: And the “Cl (Clearence)” value ([1]; 10 mg/kg oral gavage, plasma)?
Answer: 25.212 ± 3.152 mL/min/kg

Question: What about the “V (Volume of distribution)” value ([1]; 10 mg/kg oral gavage, plasma) of the same molecule?
Answer: 11283.0 ± 3583.1

Question: And the “oral absorption / bioavailability” value ([1]; 10 mg/kg oral, FIG. 9)?
Answer: high bioavailability

Question: What about the AUC [1, 3] of the same molecule?
Answer: 6690 ± 838 ng·h/mL

Question: And the Cmax [1, 3]?
Answer: 1040 ± 77.5 ng/mL

Question: What about the Tmax [1, 3] of the same molecule?
Answer: 2.3 ± 0.5 h

Question: What about the half-life ([1]; male, Sprague-Dawley, rat, 10 mg/kg oral gavage, plasma, read-out: T½ (converted)) of the same molecule?
Answer: 4.9 ± 0.6 h

Question: And the “metabolism (major metabolite)” value ([1]; oral, plasma, FIG. 9)?
Answer: undergoes decomposition to DHA

Question: And the “anti-inflammatory effect (paw swelling volume)” value [2]?
Answer: superior to Ibuprofen
